From PubChem BioAssay AID2060909 (Molecular Pharmacology Branch, DTP, NCI, 2025)

System: 362531-283-R-J2-PDC complex spheroid viability
Assay: Anticancer human tumor 362531-283-R-J2-PDC patient-derived colon adenocarcinoma cell line growth inhibition [RAS]
Details: for IC50: curve of first compound; for viability, T/C: stronger effect = lower value; active = viability on the fitted dose curve at most 10% of control; inactive = the rest
Method in brief: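 Tumour cells grown as complex spheroids with HUVEC endothelial cells and mesenchymal stem cells, treated with RAS pathway inhibitor combinations. Each agent spans half-log steps from near clinical Cmax, or 10 microM where Cmax is unknown.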

[1] = second compound 0.000949 µM, first compound 0.0316 µM
[2] = second compound 0.000949 µM, first compound 0.1 µM
[3] = second compound 0.000949 µM, first compound 0.316 µM
[4] = second compound 0.000949 µM, first compound 1 µM
[5] = second compound 0.000949 µM, first compound 3.16 µM
[6] = second compound 0.000949 µM, first compound 10 µM
[7] = second compound 0.003 µM, first compound 0.0316 µM
[8] = second compound 0.003 µM, first compound 0.1 µM
[9] = second compound 0.003 µM, first compound 0.316 µM
[10] = second compound 0.003 µM, first compound 1 µM
[11] = second compound 0.003 µM, first compound 3.16 µM
[12] = second compound 0.003 µM, first compound 10 µM
[13] = second compound 0.00949 µM, first compound 0.0316 µM
[14] = second compound 0.00949 µM, first compound 0.1 µM
[15] = second compound 0.00949 µM, first compound 0.316 µM
[16] = second compound 0.00949 µM, first compound 1 µM
[17] = second compound 0.00949 µM, first compound 3.16 µM
[18] = second compound 0.00949 µM, first compound 10 µM
[19] = second compound 0.03 µM, first compound 0.0316 µM
[20] = second compound 0.03 µM, first compound 0.1 µM
[21] = second compound 0.03 µM, first compound 0.316 µM
[22] = second compound 0.03 µM, first compound 1 µM
[23] = second compound 0.03 µM, first compound 3.16 µM
[24] = second compound 0.03 µM, first compound 10 µM
[25] = second compound 0.0949 µM, first compound 0.0316 µM
[26] = second compound 0.0949 µM, first compound 0.1 µM
[27] = second compound 0.0949 µM, first compound 0.316 µM
[28] = second compound 0.0949 µM, first compound 1 µM
[29] = second compound 0.0949 µM, first compound 3.16 µM
[30] = second compound 0.0949 µM, first compound 10 µM
[31] = second compound 0.3 µM, first compound 0.0316 µM
[32] = second compound 0.3 µM, first compound 0.1 µM
[33] = second compound 0.3 µM, first compound 0.316 µM
[34] = second compound 0.3 µM, first compound 1 µM
[35] = second compound 0.3 µM, first compound 3.16 µM
[36] = second compound 0.3 µM, first compound 10 µM
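Also: spheroids exposed to the agents for 7 days before readout.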
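For viability, T/C in this document: luminescence viability as percent of DMSO vehicle control wells.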

Cc1nc(N2CCC3(CC2)COC(C)C3N)c(CO)nc1Sc1ccnc(N)c1Cl (stereo unspecified) + CCn1c(-c2cccnc2C(C)OC)c2c3cc(ccc31)N1CCOC(CC(NC(=O)C(C(C)C)N(C)C(=O)C3(F)CCN(C(=O)C#CC(C)(C)N(C)C)CC3)C(=O)N3CCCC(N3)C(=O)OCC(C)(C)C2)C1
> 10 µM: IC50 (second compound 0.000949 µM) | IC50 (second compound 0.003 µM) | IC50 (second compound 0.00949 µM) | IC50 (second compound 0.03 µM) | IC50 (second compound 0.0949 µM) | IC50 (second compound 0.3 µM)
inactive: viability, T/C [1] 103% | viability, T/C [2] 103% | viability, T/C [3] 93% | viability, T/C [4] 102% | viability, T/C [5] 80.6% | viability, T/C [6] 72% | viability, T/C [7] 111% | viability, T/C [8] 103% | viability, T/C [9] 103% | viability, T/C [10] 86.7% | viability, T/C [11] 87.3% | viability, T/C [12] 71.1% | viability, T/C [13] 102% | viability, T/C [14] 111% | viability, T/C [15] 92.1% | viability, T/C [16] 93.3% | viability, T/C [17] 82.4% | viability, T/C [18] 77.7% | viability, T/C [19] 102% | viability, T/C [20] 108% | viability, T/C [21] 95.5% | viability, T/C [22] 89.9% | viability, T/C [23] 82.5% | viability, T/C [24] 66.4% | viability, T/C [25] 105% | viability, T/C [26] 94.9% | viability, T/C [27] 96.7% | viability, T/C [28] 77.5% | viability, T/C [29] 85.6% | viability, T/C [30] 74.7% | viability, T/C [31] 94.8% | viability, T/C [32] 117% | viability, T/C [33] 94.2% | viability, T/C [34] 87.4% | viability, T/C [35] 76.7% | viability, T/C [36] 64.9%

CC1(O)CCCC1n1c(=O)c(C(F)F)cc2cnc(NC3CCN(S(C)(=O)=O)CC3)nc21 (stereo unspecified) + CCn1c(-c2cccnc2C(C)OC)c2c3cc(ccc31)N1CCOC(CC(NC(=O)C(C(C)C)N(C)C(=O)C3(F)CCN(C(=O)C#CC(C)(C)N(C)C)CC3)C(=O)N3CCCC(N3)C(=O)OCC(C)(C)C2)C1
4.98 µM: IC50 (second compound 0.03 µM)
inactive: viability, T/C [1] 97.1% | viability, T/C [2] 113% | viability, T/C [3] 92.2% | viability, T/C [4] 70% | viability, T/C [5] 55% | viability, T/C [6] 73.7% | viability, T/C [7] 102% | viability, T/C [8] 92.1% | viability, T/C [9] 89.8% | viability, T/C [10] 72% | viability, T/C [11] 57.9% | viability, T/C [12] 44.6% | viability, T/C [13] 108% | viability, T/C [14] 110% | viability, T/C [15] 84% | viability, T/C [16] 72.4% | viability, T/C [17] 50.5% | viability, T/C [18] 53.9% | viability, T/C [19] 103% | viability, T/C [20] 97% | viability, T/C [21] 77.7% | viability, T/C [22] 63% | viability, T/C [23] 63.9% | viability, T/C [24] 38.9% | viability, T/C [25] 102% | viability, T/C [26] 91% | viability, T/C [27] 94.5% | viability, T/C [28] 58.9% | viability, T/C [29] 53.9% | viability, T/C [30] 54.7% | viability, T/C [31] 100% | viability, T/C [32] 87.4% | viability, T/C [33] 87.7% | viability, T/C [34] 66% | viability, T/C [35] 56.9% | viability, T/C [36] 51.4%
> 10 µM: IC50 (second compound 0.000949 µM) | IC50 (second compound 0.00949 µM) | IC50 (second compound 0.0949 µM) | IC50 (second compound 0.3 µM)
6.21 µM: IC50 (second compound 0.003 µM)

C=CC(=O)N1CCN(c2nc(OCC3CCCN3C)nc3c(F)c(-c4nc(N)cc(C)c4C(F)(F)F)c(Cl)cc23)C(C)C1 (stereo unspecified) + CCn1c(-c2cc(N3CCN(C)CC3)cnc2C(C)OC)c2c3cc(ccc31)-c1csc(n1)CC(NC(=O)C1CC1C)C(=O)N1CCCC(N1)C(=O)OCC(C)(C)C2
> 1 µM: IC50 (second compound 0.000949 µM) | IC50 (second compound 0.003 µM) | IC50 (second compound 0.00949 µM) | IC50 (second compound 0.03 µM) | IC50 (second compound 0.0949 µM)
< 0.00316 µM: IC50 (second compound 0.3 µM)
inactive: viability, T/C (second compound 0.000949 µM, first compound 0.00316 µM) 101% | viability, T/C (second compound 0.000949 µM, first compound 0.01 µM) 100% | viability, T/C [1] 107% | viability, T/C [2] 92.5% | viability, T/C [3] 94.3% | viability, T/C [4] 103% | viability, T/C (second compound 0.003 µM, first compound 0.00316 µM) 107% | viability, T/C (second compound 0.003 µM, first compound 0.01 µM) 103% | viability, T/C [7] 97% | viability, T/C [8] 92% | viability, T/C [9] 104% | viability, T/C [10] 91.7% | viability, T/C (second compound 0.00949 µM, first compound 0.00316 µM) 93.7% | viability, T/C (second compound 0.00949 µM, first compound 0.01 µM) 108% | viability, T/C [13] 104% | viability, T/C [14] 99.1% | viability, T/C [15] 108% | viability, T/C [16] 106% | viability, T/C (second compound 0.03 µM, first compound 0.00316 µM) 87.8% | viability, T/C (second compound 0.03 µM, first compound 0.01 µM) 104% | viability, T/C [19] 86.8% | viability, T/C [20] 81.1% | viability, T/C [21] 95.7% | viability, T/C [22] 101% | viability, T/C (second compound 0.0949 µM, first compound 0.00316 µM) 88% | viability, T/C (second compound 0.0949 µM, first compound 0.01 µM) 87.5% | viability, T/C [25] 81.2% | viability, T/C [26] 80.3% | viability, T/C [27] 75.5% | viability, T/C [28] 90.5% | viability, T/C (second compound 0.3 µM, first compound 0.00316 µM) 43% | viability, T/C (second compound 0.3 µM, first compound 0.01 µM) 57% | viability, T/C [31] 41.2% | viability, T/C [32] 45.9% | viability, T/C [33] 45.9% | viability, T/C [34] 35%
